Here are results for one compound from publication PMC6498537, “Biomimetic synthesis of the natural product salviadione and its hybrids: discovery of tissue-specific anti-inflammatory agents for acute lung injury” (Chemical Science, 2019).

Data set [1] is described as follows: Liver microsomal stability assay, rat. The format is in vitro ADME. As to conditions: rat liver microsomes. The method, then:
(§1) Liver Microsomal Stability Assay. Microsomes in 0.1 M TRIS buffer pH 7.4 (final concentration 0.33 mg/mL), co-factor MgCl2 (final concentration 5 mM) and tested compound (final concentration 0.1 μM, co-solvent (0.01% DMSO) and 0.005% Bovin serum albumin) were incubated at 37°C for 10min. The reaction was started by the addition of NADPH (final concentration 1 mM). Aliquots were sampled at 0, 7, 17, 30 and 60 min, respectively, and methanol (cold in 4 °C) was added to terminate the […]
(§2) reaction. […]
In general terms: Liver microsomes are a subcellular fraction often used to study metabolism.

Details of data set [2]: method as in PMID 17504222. Conditions: literature value for 2; ref 8a; cited from earlier work.
Data set [3] can be described thus: Liver microsomal stability assay, human. The format is in vitro ADME. As to conditions: human liver microsomes. The method, then:
as §1, §2

As usually defined, the half-life is the time in which the quantity being followed falls by half. A high value points to slow loss. In the case of `Cc1coc2c1C(=O)C(=O)c1c-2ccc2c1CCCC2(C)C` [Compound 2, tanshinone IIA, reference compound], the half-life at 0.1 μM in data set [1] (pH 7.4) is 3.15 min; in data set [3] (pH 7.4), 7.58 min. Also, the Clint in vitro in data set [1] amounted to 666.40 mL min^–1 g^–1 protein; in data set [3] it was 277.17 mL min^–1 g^–1 protein. For the same compound, the “F (oral bioavailability)” value in data set [2] was less than 3.5%. In addition, in data set [2], the T1/2 is 20.4 min.
